Measurements from ChEMBL document CHEMBL4840340, “Design, synthesis, kinetic, molecular dynamics, and hypoglycemic effect characterization of new and potential selective benzimidazole derivatives as Protein Tyrosine Phosphatase 1B inhibitors” (Bioorg Med Chem, 2021).
Calls of active or inactive are those of the source. The rule behind the calls is not given here.

Legend:
[1] = biological target: T1, Tyrosine-protein phosphatase non-receptor type 1 (Homo sapiens) (UniProt P18031); assay: Inhibition of PTP1B (unknown origin) at 40 uM using pNPP as substrate by spectrophotometric analysis
T1 sequence (whole entry): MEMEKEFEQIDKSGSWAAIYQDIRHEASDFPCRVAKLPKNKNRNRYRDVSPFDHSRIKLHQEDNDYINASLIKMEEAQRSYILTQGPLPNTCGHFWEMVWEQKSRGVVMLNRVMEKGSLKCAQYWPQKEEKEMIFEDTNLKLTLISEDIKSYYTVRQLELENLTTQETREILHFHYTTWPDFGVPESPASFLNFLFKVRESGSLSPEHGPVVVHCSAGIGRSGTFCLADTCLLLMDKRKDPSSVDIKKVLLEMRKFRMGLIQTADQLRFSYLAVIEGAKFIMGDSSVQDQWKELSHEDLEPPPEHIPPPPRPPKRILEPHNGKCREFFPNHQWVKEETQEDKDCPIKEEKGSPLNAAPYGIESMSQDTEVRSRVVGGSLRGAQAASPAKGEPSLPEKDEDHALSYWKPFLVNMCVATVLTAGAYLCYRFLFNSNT

[2] = biological target: T1, Tyrosine-protein phosphatase non-receptor type 1 (Homo sapiens); assay: Mixed type inhibition of PTP1B (unknown origin) using varying levels of pNPP as substrate by Lineweaver-Burk plot analysis
Rattus norvegicus = assay: Hypoglycemic activity in high fat diet-fed induced type 2 diabetic mellitus Wistar rat model assessed as blood glucose level at 60 mg/kg, ip by glucose tolerance test; type: functional
[3] = biological target: T1, Tyrosine-protein phosphatase non-receptor type 1 (Homo sapiens); assay: Inhibition of PTP1B (unknown origin) assessed as inhibition constant for uncompetitive inhibition using pNPP as substrate by spectrophotometric analysis
[4] = biological target: T2, Tyrosine-protein phosphatase non-receptor type 1 (Homo sapiens, UniProt P18031); assay: Inhibition of PTP1B (unknown origin) assessed as inhibition constant using pNPP as substrate by spectrophotometric analysis
T2 sequence (P18031 whole entry): T1 sequence (whole entry)

[5] = biological target: T1, Tyrosine-protein phosphatase non-receptor type 1 (Homo sapiens); assay: Inhibition of PTP1B (unknown origin) at 20 uM using pNPP as substrate by spectrophotometric analysis

| SMILES | inhibition [1] [%] | inhibition [2] | alphaKi [3] [µM] | Ki [4] [µM] | inhibition [5] | Activity (Rattus norvegicus) [%] |
| --- | --- | --- | --- | --- | --- | --- |
| O=C(CSc1nc2cc(Oc3cccc4ccccc34)ccc2[nH]1)Nc1nccs1 |  |  |  |  | inactive |  |
| CCOC(=O)c1ccc(NC(=O)CSc2nc3cc(Oc4ccc5ccccc5c4)ccc3[nH]2)cc1 |  |  |  |  | inactive |  |
| Cc1cc(NC(=O)CSc2nc3cc(Oc4ccc5ccccc5c4)ccc3[nH]2)on1 |  |  |  |  | inactive |  |
| O=C(CSc1nc2cc(Oc3ccc4ccccc4c3)ccc2[nH]1)Nc1nccs1 |  |  |  |  | inactive |  |
| O=C(CSc1nc2cc(Oc3ccc4ccccc4c3)ccc2[nH]1)Nc1ccc(C(=O)O)cc1 | 30 | Active | 113 | 35.2 |  | 23 |

Continued, in another order:

| inhibition [1] [%] | inhibition [2] | alphaKi [3] [µM] | Ki [4] [µM] | inhibition [5] | SMILES | Activity (Rattus norvegicus) [%] |
| --- | --- | --- | --- | --- | --- | --- |
| 75 | Active | 37.8 | 12.6 |  | O=C(CSc1nc2cc(Oc3ccc4ccccc4c3)c(Cl)cc2[nH]1)Nc1ccc(C(=O)O)cc1 | 28 |
| 0 |  |  |  |  | CCOc1cc2nc(SCC(=O)Nc3ccc(C(=O)O)cc3)[nH]c2cc1Cl |  |
|  |  |  |  | inactive | O=C(CSc1nc2cc(Oc3ccc4ccccc4c3)c(Cl)cc2[nH]1)Nc1nccs1 |  |
| 45 | Active | 60.6 | 23.3 |  | O=C(CSc1nc2cc(Oc3cccc4ccccc34)ccc2[nH]1)Nc1ccccc1C(=O)O | 15 |
|  |  |  |  | inactive | CCOC(=O)c1ccc(NC(=O)CSc2nc3cc(Oc4cccc5ccccc45)ccc3[nH]2)cc1 |  |
| 40 | Active | 124 | 30.2 |  | O=C(CSc1nc2cc(Oc3cccc4ccccc34)ccc2[nH]1)Nc1ccc(C(=O)O)cc1 | 19 |
|  |  |  |  | inactive | CCOC(=O)c1csc(NC(=O)CSc2nc3cc(Oc4ccc5ccccc5c4)ccc3[nH]2)n1 |  |
